Tested on: drug-resistant Mycobacterium tuberculosis
Settings: drug-resistant Mycobacterium tuberculosis growth; peptide 10 micrograms per ml; seven days

SMILES: CC[C@H](C)[C@H](NC(=O)[C@H](Cc1ccccc1)NC(=O)[C@H](CCC(=O)O)NC(=O)[C@H](CCCCN)NC(=O)[C@H](C)NC(=O)[C@H](C)NC(=O)[C@H](CCC(N)=O)NC(=O)CNC(=O)[C@H](CCC(=O)O)NC(=O)[C@H](CC(C)C)NC(=O)[C@H](Cc1ccc(O)cc1)NC(=O)[C@H](CO)NC(=O)[C@H](CO)NC(=O)[C@@H](NC(=O)[C@H](CC(=O)O)NC(=O)[C@H](CO)NC(=O)[C@@H](NC(=O)[C@H](Cc1ccccc1)NC(=O)[C@@H](NC(=O)CNC(=O)[C@H](CCC(=O)O)NC(=O)[C@H](C)NC(=O)[C@H](Cc1c[nH]cn1)NC(=O)[C@H](CCCNC(=N)N)NC(=O)[C@H](CCC(=O)O)NC(=O)[C@H](Cc1ccccc1)NC(=O)[C@H](CCC(=O)O)NC(=O)[C@H](CC(=O)O)NC(=O)[C@@H](N)Cc1c[nH]cn1)[C@@H](C)O)[C@@H](C)O)C(C)C)C(=O)N[C@@H](C)C(=O)N[C@@H](Cc1c[nH]c2ccccc12)C(=O)N[C@@H](CC(C)C)C(=O)N[C@H](C(=O)N[C@@H](CCCCN)C(=O)NCC(=O)N[C@@H](CCCNC(=N)N)C(=O)NCC(=O)O)C(C)C [GLP-1]
- % inhibition: 0.0%

From US20100311643A1, “USE OF GLP-1 AS A THERAPEUTIC AGENT” (priority 2007, published 2010)
